The results in this text go back to US20260265690A1, “Epithelial Stem Cells and Production and Uses thereof” (Stemson Therapeutics Corp., priority 2022, published 2026).

Common to all, as to assay type: cell-based, human
One assay concerns hiPSC-EPSCs. Nature of the assay: Colony formation assay (CFA) on 3T3 fibroblast feeders. Particulars: small molecules added to expansion medium at passage 4; 2.5 μM CHIR99021, 1 μM DMH-1, 2.5 μM A-83-01; CFA at p7, 1K/well, 10 days. The protocol:
FIGS. 2A-2D show characterization of hiPSC-EPSC in vitro. […] For CFA, different hiPSC-EPSC lines (EP61, EP112 and EP116) and control HF-KC were subcultured for 3 passages (p3) then plated on 3T3 fibroblast feeders at 1K/well and incubated for additional 10 days, then fixed and stained with Crystal violet. […] Hair follicle derived keratinocytes (HFKC) are used as reference cells. […] Ns: p>0.05; *: p<0.05; ** p<0.01; *** p<0.001; ****: p<0.0001. […] Note nuclear localization of 3-Cat, a hallmark of Wnt signaling activation in hiPSC-EPSC but not in HF-KC (arrows).
(§1) FIGS. 3A-3E show activation of Wnt signaling pathway via GSK3 inhibition enables long-term expansion of hiPSC-EPSC. […] The clonogenicity of hiPSC-EPSCs was diminishing as a result of serial passaging. […] For CFA, hiPSC-EPSCs were cultured for 7 weeks (p7) with or without small molecule inhibitors, then plated on 3T3 fibroblast feeders at 1K/well and incubated for additional 10 days, then fixed and stained with Crystal violet. The plates were scanned and analyzed using imaging software to determine the confluency. The confluency data from three experiments is summarized in the graph (right panel). […] The graph is showing the percentage of proliferating (Ki67+) hiPSC-EPSC over total nuclei (DAPI+). *: p<0.05. […] Data was analyzed using standard ddCt method and shown as mean±s.d. of the expression from three independent experiments. *: p<0.05; ****: p<0.01. […] Data are represented as a heatmap, where results from eight independent differentiation experiments were averaged and z-scores were calculated for each timepoint represented.
Despite EPSCs having substantial self-renewal capability in vivo, the prolonged expansion in vitro of EPSC isolated from various tissues has remained challenging. It is well documented that in conventional cultures, freshly isolated EPSCs rapidly lose their clonogenicity and stem cell marker expression signature. Inoue et al, Lab invest. 2009 August, 89(8):844-56; Ohyama et al., J Clin Invest. 2006 January, 116(1):249-60; Yang et al., Stem Cell Research & Therapy (2020) 11:303. […]

For assay [1], the system named is Wnt pathway genes LEF1, TCF4, LGR6 in hiPSC-EPSC. Nature of the assay: qPCR gene expression analysis of Wnt signaling pathway genes. Particulars: ddCt, hiPSC-EPSC treated with CHIR-99021. The protocol:
as §1
Despite EPSCs having substantial self-renewal capability in vivo, the prolonged expansion in vitro of EPSC isolated from various tissues has remained challenging. It is well documented that in conventional cultures, freshly isolated EPSCs rapidly lose their clonogenicity and stem cell marker expression signature. Inoue et al, Lab invest. […]
(In general: Real-time PCR tracks product formation cycle by cycle.)

Assay [2] concerns HF organoids of hiPSC-EPSC with dermal papilla (DP) cells. Briefly: 3D hair follicle organoid assay (roundness/elongation score). Particulars: 2.5 μM added to EPSC and organoid culture. How it is done: FIGS. 4A-4D show in vitro functional analysis of hiPSC-EPSC in 3D tissue constructs. […] Bottom panel illustrates an organoid development process of using an example of an organoid created by combining fluorescently labeled (red) dermal papilla (DP) cells with HF-KCs. […] Measurement is obtained with CYTATION™ 5 software. Each color represents a different cell combination, and each dot represents a single organoid. The percentage of elongated organoids was increased when hiPSC-EPSC were treated with CHIR-99021. […] Neonatal foreskin-derived keratinocytes (HFK) were used as a control. […]
The stable hiPSC-EPSC with features of HF bulge EPSC described above were investigated as to whether they were receptive to specific mesenchymal stimuli and capable of creating complex multilayered tissues. […] To quantitively assess the organoids elongation and provide an indicator of hiPSC-EPSC functionality in vitro, an automated computational image-based analysis was employed that calculates the roundness of the generated 3D structures, assigning values between 1 and 0, where 1 represents a perfectly round object and 0 a long shaped one. By plotting time-lapse values of roundness score in a graph, the ability of iPSC-EPSC cells to generate elongated structure in combination with DP cells (FIG. 4C) was quantified. […]

For another assay, the system named is hiPSC-EPSC. Briefly: Ki67 immunofluorescent analysis of proliferating cells. Particulars: hiPSC-EPSC treated with CHIR-99021 vs untreated cells. How it is done:
as §1
Immunocytochemistry: Cells were cultured and imaged in 96 well plates. Briefly, media was aspirated, and wells rinsed once with PBS for 2 minutes. Cells were fixed with 4% formaldehyde for 10 minutes at RT, followed by two washes with PBS. […]

The subject of the next assay is passage 4 hiPSC-EPSCs. Nature of the assay: Bulk RNA-seq of HF bulge EPSC marker expression. Particulars: CHIR-99021 vs DMSO. How it is done: FIGS. 3A-3E show activation of Wnt signaling pathway via GSK3 inhibition enables long-term expansion of hiPSC-EPSC. […] The clonogenicity of hiPSC-EPSCs was diminishing as a result of serial passaging. […] For CFA, hiPSC-EPSCs were cultured for 7 weeks (p7) with or without small molecule inhibitors, then plated on 3T3 fibroblast feeders at 1K/well and incubated for additional 10 days, then fixed and stained with Crystal violet. The plates were scanned and analyzed using imaging software to determine the confluency. The confluency data from three experiments is summarized in the graph (right panel). […] Data was analyzed using standard ddCt method and shown as mean±s.d. of the expression from three independent experiments. *: p<0.05; ****: p<0.01. […] Data are represented as a heatmap, where results from eight independent differentiation experiments were averaged and z-scores were calculated for each timepoint represented.
Bulk RNA-sequencing: RNA was extracted from each sample and quantified with Qubit. cDNA libraries were generated using the NEB library kit. All libraries were then quantified, pooled, and sequenced on Illumina platforms. Reads were first analyzed by fastQC and then trimmed for low-quality bases with Trimmomatic. Clean reads were then aligned to the human reference genome (GRCh38) with Ensembl gene annotation using STAR software. […]

Structures are written as SMILES.

Take `Cc1cccc(-c2nn(C(=S)Nc3ccccc3)cc2-c2ccnc3ccccc23)n1` [A-83-01]: the “clonogenicity of hiPSC-EPSCs” value with hiPSC-EPSCs is on record as “not BMP or TGF-β inhibitors, preserved clonogenicity”.

Regarding `CC(C)Oc1ccc(-c2cnc3c(-c4ccnc5ccccc45)cnn3c2)cc1` [DMH-1], the “clonogenicity of hiPSC-EPSCs” value with hiPSC-EPSCs is reported as “not BMP or TGF-β inhibitors, preserved clonogenicity”.

With `Cc1c[nH]c(-c2cnc(NCCNc3ccc(C#N)cn3)nc2-c2ccc(Cl)cc2Cl)n1` [CHIR-99021, 6-((2-((4-(2,4-Dichlorophenyl)-5-(4-methyl-1H-imidazol-2-yl)pyrimidin-2-yl)amino)ethyl)amino)nicotinonitrile], the “expression of Wnt pathway genes including LEF1, TCF4, and LGR6” value in assay [1] is “upregulation”. Also, in the assay on hiPSC-EPSCs, the “clonogenicity of hiPSC-EPSCs” value is “preserved clonogenicity”. The “percentage of elongated organoids” value in assay [2] is listed as “increased”. Moreover, the “number of proliferating (Ki67+) cells” value in the assay on hiPSC-EPSC was “significantly higher number of proliferating cells”. Further, in the assay on passage 4 hiPSC-EPSCs, the “expression of HF bulge EPSC markers including KRT15, CD59, TP63, ITGA6, DKK3, SOX9, and NFATC1” value is reported as “increased the expression”.
